Measurements reported in US7045627B2, “Dichlorinated heterocyclic compounds and methods of synthesis” (R.T. Alamo Ventures I, LLC, priority 2002, dated 2006).

Tested on: PDE1
Assay: PDE1 enzyme inhibition assay
Type: biochemical
Details: PDE1 partially purified from bovine heart; 25° C.; varying concentrations; 1% DMSO vehicle
Source text: In this example, dichloroflosequinan was subjected to biochemical enzyme assays to determine its respective percent inhibition of a variety of phosphodiesterases (PDE1–PDE6). The methods used have been adapted from those described in the scientific literature, see Hidaka and Asano “Human blood platelet 3′:5′ cyclic nucleotide phosphodiesterase. Isolation of low-Km and high Km phosphodiesterase.” Biochem. Biophys. […] Unhydrolyzed cAMP was bound to AGI-X2 resin, and the remaining [^3H]adenosine in the aqueous phase was quantitated by scintillation counting. • PDE2: PDE2 partially purified from human platelets was used. […] Unhydrolyzed cAMP was bound to AGI-X2 resin, and the remaining [^3H]adenosine in the aqueous phase was quantitated by scintillation counting. • PDE3: PDE3 partially purified from human platelets was used. […] Unhydrolyzed cAMP was bound to AGI-X2 resin, and the remaining [^3H]adenosine in the aqueous phase was quantitated by scintillation counting. • PDE4: PDE4 partially purified from human U-937 pronocytic cells was used. […] Unhydrolyzed cAMP was bound to AGI-X2 resin, and the remaining [^3H]adenosine in the aqueous phase was quantitated by scintillation counting. • PDE5: PDE5 partially purified from human platelets was used. […]

Cn1cc([S+]([O-])C(Cl)Cl)c(=O)c2ccc(F)cc21 (stereo not shown) [dichloroflosequinan, 3-dichloromethylsulfinyl-7-fluoro-1-methyl-4-quinolone]
inhibition of PDE1: greater than 50%
